The source of these data is patent US20250136997A1, “COMPOSITIONS FOR SEQUESTERING ISOAMYL AMINE AND METHODS OF USE THEREFOR” (University of Louisville Research Foundation, Inc., priority 2023, published 2025).

Data set [1] concerns S100A8 promoter. Kind of data set: Luciferase reporter with S100A8 promoter in microglia. The data set is classed as cell-based, mouse. The text has this: Construction of the S100A8 promoter into the luciferase plasmid vector. To determine the activity of IAA on the promoter of S100A8, a sequence containing 1,037 bp of S100A8 promoter (GENBANK® Accession #: L76381) upstream −1,037 to −1 from transcription start site (TSS) was constructed into the luciferase C1 vector (Addgene, #163523). A DNA fragment was generated by PCR amplification with genomic DNA extracted from mouse liver tissue using DNeasy Blood & Tissue Kits (Qiagen, #69504). PCR was conducted using Q5 High-Fidelity PCR kit (New England Biolabs® Inc.) with the primers 51008A-prom, pLuc163523 and genomic DNA, and luciferase C1 plasmid as the template, respectively. The two PCR products purified using the Gel extraction kit (Qiagen) were seamlessly assembled into the pLuc-S100p using the NEBuilder HiFi DNA Assembly Cloning Kit (New England Biolabs® Inc.). The plasmid pLuc-S100p was transformed into DH5a and selected using kanamycin resistance. The DNA sequence was confirmed by DNA sequencing.
Site-directed mutagenesis within the S100A8 promoter. A mutant of IAA with the potential binding site on the S100A8 promoter was generated with the oligonucleotide primer S1008A-prom-Mut, which was designed to specifically disrupt the putative S100A8 binding site at its promoter (FIG. 3C). Q5® Site-Directed Mutagenesis Kit (New England Biolabs, MA, USA) was used in conjunction with specific primers (Table 3) to introduce S100A8 promoter mutations in the pLuc-S100p construct according to the manufacturer's instructions. After mutant strand synthesis and ligation, resultant plasmids were introduced into E. coli and transformants were selected using kanamycin resistance. The DNA sequence of mutants was confirmed by DNA sequencing.
(In general: A reporter such as luciferase makes a cellular process visible.)

Data set [2] relates to promoter of S100A8. Kind of data set: SPR of p53 protein and biotinylated oligo with or without IAA. The data set is classed as binding, mouse.
A short description of data set [3]: Histological analysis (H&E) of brain. The data set is classed as in vivo, mouse. To be noted: IAA to young mice, phage to aged mice; especially cerebrum and cerebellum. The protocol:
Histological analysis. For hematoxylin and eosin (H&E) staining, tissues were fixed with buffered 10% formalin solution (SF93-20; Fisher Scientific, Fair Lawn, NJ) overnight at 4° C. Dehydration was achieved by immersion in a graded ethanol series of 70%, 80%, 95%, and 100% ethanol for 40 minutes each. Tissues were embedded in paraffin and subsequently cut into ultra-thin slices (5 μm) using a microtome. Tissues were deparaffinized by xylene (Fisher) and rehydrated by decreasing concentrations of ethanol and PBS. Tissue sections were stained with H&E and slides were scanned with an Aperio ScanScope. For frozen sections, tissues were fixed with periodate-lysine-paraformaldehyde (PLP) and dehydrated with 30% sucrose in PBS at 4° C. overnight. The sections were incubated overnight at 4° C. with anti-Iba1 (FujiFilm, #019-19741) and anti-CD-11b (Biolegend, #101204) diluted 1:100. The signal was visualized with the secondary antibodies conjugated to Fluors Alex-488 or Alex-594 (Invitrogen) and nuclei were stained with 4′,6-Diamidino-2-phenylindole dihydrochloride (DAPI). The slides were scanned using an Aperio ScanScope or visualized using confocal laser scanning microscopy (Nikon, Melville, NY).

The nature of data set [4]: Surface plasmon resonance (SPR) of biotin-labeled oligos with IAA. The data set is classed as binding. To be noted: biotin labeled oligo on streptavidin sensor chip. The protocol:
Surface plasmon resonance (SPR). To identify the binding activity of the metabolite IAA and S100A8 promoter sequence, SPR experiments were conducted on an OPENSPR™ (Nicoya, Lifesciences, CA). Experiments were performed on a streptavidin sensor (Nicoya, Lifesciences). SPR was run at a flow rate of 20 μl/min using HBS running buffer (20 mM HEPES, 150 mM NaCl, pH 7.4). First, the streptavidin sensor chip was cleaned with octyl β-D-glucopyranoside (40 mM) and CHAPS (20 mM). 200 μl of biotin-conjugated oligos (1 μg/ml, Table 5) were injected on the sensor chip for 10 minutes until a stable resonance was obtained. After immobilization of bio-oligo, the surface was blocked with BSA (3%) in running buffer. After a stable signal was obtained, IAA (10 nM) was run over the immobilized bio-oligo until a stable resonance was obtained. A negative control test was also performed by injecting IAA onto a blank sensor chip to check for non-specific binding. The sensograms were analyzed using TraceDrawer kinetic analysis software.
A general note: SPR reads the build-up and loss of mass on a sensor chip optically.

As for `CC(C)CCN` [IAA, isoamylamine], the “effect of IAA on the S100A8 transcription (luciferase)” value in data set [1] (p53 KO microglia with additional p53) is “recovered”. Moreover, the “IAA-induced S100A8 activation (luciferase)” value in data set [1] (p53 deficiency (p53 KO microglia)) is “attenuated”. The “luciferase activity, S100A8 promoter sequence” value in data set [1] (wild-type promoter, microglia, 12 h after IAA) is “activated”. Moreover, the “p53 binding to promoter of S100A8 (SPR)” value in data set [2] was “p53 binds to promoter of S100A8 in an IAA dependent manner”. In data set [3], the “neuronal loss and dying neurons in the brain (histology)” value was “significantly promoted”.
As for “S100p1-G: CTGTGGGCAG CTGGCCAAGC (SEQ ID NO: 8), S100A8 promoter −57 . . . −38 (DNA CTGTGGGCAGCTGGCCAAGC; chemistry not given here)”, the “interaction with IAA (SPR)” value in data set [4] was “targeted by IAA”.
